The text below walks through data of ChEMBL document CHEMBL1123159, “Quantitative evaluation of the beta 2-adrenoceptor intrinsic activity of N-tert-butylphenylethanolamines” (J Med Chem, 1986).

The target in data set [1] is Beta-2 adrenergic receptor (Bos taurus) (UniProt Q28044). As to the kind of experiment: Beta-2 adrenergic receptor intrinsic symphaticomimetic activity relative to salbutamol. The format is functional.
For data set [2], the target named is Beta-2 adrenergic receptor (Bos taurus, UniProt Q28044). The experiment in a line: Apparent binding affinity constant to beta-2 adrenergic receptor determined using [3H]DHA. Conditions: read-out: KD app.
Beta-2 adrenergic receptor, sequence (Q28044 whole entry): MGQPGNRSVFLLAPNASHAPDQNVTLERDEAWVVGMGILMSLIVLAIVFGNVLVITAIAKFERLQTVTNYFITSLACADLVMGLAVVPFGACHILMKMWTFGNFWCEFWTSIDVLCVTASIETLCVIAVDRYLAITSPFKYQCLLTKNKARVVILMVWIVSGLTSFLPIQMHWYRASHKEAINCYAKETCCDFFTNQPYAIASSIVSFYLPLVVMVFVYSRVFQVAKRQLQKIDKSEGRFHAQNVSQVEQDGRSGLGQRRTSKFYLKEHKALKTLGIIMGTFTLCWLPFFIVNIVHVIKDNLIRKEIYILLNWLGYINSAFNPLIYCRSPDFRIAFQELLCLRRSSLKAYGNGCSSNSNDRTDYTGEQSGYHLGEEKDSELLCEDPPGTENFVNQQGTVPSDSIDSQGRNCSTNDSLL
Data set [3] deals with Beta-2 adrenergic receptor (Bos taurus) (UniProt Q28044). The experiment in a line: Concentration required for maximal (95-100%) beta-2 adrenergic receptor occupancy.
The target is the same in data set [4]. As to the kind of experiment: Intrinsic activity was measured as concentration of beta-2 adrenergic receptor agonist required for cAMP production. The data set is classed as functional. (In general: cAMP levels reflect the balance of adenylyl cyclase and phosphodiesterase activity.)
The nature of data set [5]: log(1/ISA) value of the compound.

pKd: −log10 of the molar value.

Beta-2 adrenergic receptor (Bos taurus), sequence (Q28044 whole entry, looked up): as the sequence (Q28044 whole entry) above

On to `CNc1cc(C(O)CNC(C)(C)C)ccc1O` (stereo not given), for which, in data set [1], the ISA was 0.95. In addition, the pKd (as a rule, the negative decadic logarithm of the Kd, by convention in mol/L) in data set [2] was 6.25. The Concentration in data set [3] is 30 µM. For the same compound, in data set [4], the cAMP production (pM min-1 mg-1) came out at 115. Moreover, in data set [5], the “Log 1/ISA” value was 0.02.
Take `CC(C)(C)NCC(O)c1cc(Cl)c(O)c(Cl)c1` (stereo not given): the ISA in data set [1] is 0.39. For the same compound, the pKd in data set [2] is 5.19. The same compound came in with a Concentration in data set [3] of 300 µM. Also, the cAMP production (pM min-1 mg-1) in data set [4] was 47. In addition, the “Log 1/ISA” value in data set [5] came out at 0.41.
In data set [1], `CC(C)(C)NCC(O)c1ccc(O)c(N)c1` (stereo not given) yielded an ISA of 0.68. In data set [2], the pKd is 5.66. The compound further gave a cAMP production (pM min-1 mg-1) in data set [4] of 83. The “Log 1/ISA” value in data set [5] worked out at 0.17.
`CC(C)(C)NCC(O)c1ccc(O)c(C(N)=O)c1` (stereo not given) yielded an ISA in data set [1] of 0.2. Further, the pKd in data set [2] is 5.99. Also, the Concentration in data set [3] was 30 µM. This compound also registered a cAMP production (pM min-1 mg-1) in data set [4] of 24. Moreover, the “Log 1/ISA” value in data set [5] was 0.7.
In turn, `CC(C)(C)NCC(O)c1cc(Cl)c(N)c(Cl)c1` (stereo not given) returned an ISA in data set [1] of 0.53. In data set [3], this compound showed a Concentration of 1 µM. The same compound registered a cAMP production (pM min-1 mg-1) in data set [4] of 64.
`CC(C)(C)NCC(O)c1ccc(O)c(O)c1` (stereo not given) [COLTEROL] came in with an ISA in data set [1] of 0.68. Moreover, in data set [2], the pKd was 6.17. In data set [4], the cAMP production (pM min-1 mg-1) was 83. Further, the “Log 1/ISA” value in data set [5] turned out to be 0.17.
Take `CC(C)(C)NCC(O)c1ccccc1Cl` (stereo not given) [TULOBUTEROL]: the ISA in data set [1] stood at 0.5. In data set [3], this compound had a Concentration of 10 µM. The same compound yielded a cAMP production (pM min-1 mg-1) in data set [4] of 61. Moreover, the “Log 1/ISA” value in data set [5] was determined as 0.3.
For the compound `CC(C)(C)NCC(O)c1ccc(O)cc1` (stereo not given), the ISA in data set [1] amounted to 0.8. Moreover, the pKd in data set [2] is 5.87. The Concentration in data set [3] amounted to 100 µM. In addition, the cAMP production (pM min-1 mg-1) in data set [4] amounted to 97. Further, the “Log 1/ISA” value in data set [5] is 0.1.
For `CC(C)(C)NCC(O)c1cc(O)cc(O)c1` (stereo not given), the ISA in data set [1] was 0.41. Moreover, the cAMP production (pM min-1 mg-1) in data set [4] is 50.
Consider `CC(C)(C)NCC(O)c1ccc(O)c(CO)c1` (stereo not given), for which the ISA in data set [1] came to 1. Further, in data set [3], the Concentration came to 30 µM. In data set [4], this compound had a cAMP production (pM min-1 mg-1) of 122.
In data set [1], `CC(C)(C)NCC(O)c1ccccc1` (stereo not given) had an ISA of 0.35. For the same compound, the pKd in data set [2] was 5.53. Also, the Concentration in data set [3] stood at 100 µM. Besides, the cAMP production (pM min-1 mg-1) in data set [4] is 43. In addition, the “Log 1/ISA” value in data set [5] worked out at 0.46.
